# Source: PMC5218480 (PLoS ONE, 2017)
# Tested on: MV-4-11 cells
# Assay: Gene expression microarray analysis (Affymetrix PrimeView) and GSEA
# Assay type: cell-based, human
# Set-up: RFU PODN (11730768_x_at) / Fold change /veh PODN (11730768_x_at) / RFU LINC00158 (11744669_a_at) / Fold change /veh LINC00158 (11744669_a_at) / RFU DUSP10 (11751237_a_at) / Fold change /veh DUSP10 (11751237_a_at) / RFU ID3 (11757404_x_at) / Fold change /veh ID3 (11757404_x_at) / RFU PLEKHG5 (11737974_s_at) / Fold change /veh PLEKHG5 (11737974_s_at) / RFU LRRC4B (11730491_at) / Fold change /veh LRRC4B (11730491_at) / RFU GIMAP4 (11747438_a_at) / Fold change /veh GIMAP4 (11747438_a_at) / RFU KRT8 (11758183_x_at) / Fold change /veh KRT8 (11758183_x_at) / RFU CNN1 (11734310_a_at) / Fold change /veh CNN1 (11734310_a_at) / RFU VPS37D (11726825_at) / Fold change /veh VPS37D (11726825_at) / RFU C10orf10 (11716522_x_at) / Fold change /veh C10orf10 (11716522_x_at) / RFU KIR2DL2 /// KIR2DL4 /// KIR2DL5A /// KIR2DL5B /// KIR2DS1 /// KIR2DS2 /// KIR2DS3 /// KIR2DS4 /// KIR3DL3 /// KIR3DL3 /// KIR3DS1 (11738374_at) / Fold change /veh KIR2DL2 /// KIR2DL4 /// KIR2DL5A /// KIR2DL5B /// KIR2DS1 /// KIR2DS2 /// KIR2DS3 /// KIR2DS4 /// KIR3DL3 /// KIR3DL3 /// KIR3DS1 (11738374_at) / RFU C1QL1 (11718748_at) / Fold change /veh C1QL1 (11718748_at) / RFU TMPRSS4 (11747572_a_at) / Fold change /veh TMPRSS4 (11747572_a_at) / RFU HAMP (11756126_x_at) / Fold change /veh HAMP (11756126_x_at) / RFU RNFT2 (11725882_a_at) / Fold change /veh RNFT2 (11725882_a_at) / RFU NR4A2 (11747474_a_at) / Fold change /veh NR4A2 (11747474_a_at) / RFU ABCC12 (11746883_a_at) / Fold change /veh ABCC12 (11746883_a_at) / RFU TMEM136 (11760407_x_at) / Fold change /veh TMEM136 (11760407_x_at) / RFU CLDN22 /// WWC2 (11732394_at) / Fold change /veh CLDN22 /// WWC2 (11732394_at) / RFU HLA-DPB1 (11760878_x_at) / Fold change /veh HLA-DPB1 (11760878_x_at) / RFU SPINT1 (11716480_a_at) / Fold change /veh SPINT1 (11716480_a_at) / RFU GAP43 (11754022_s_at) / Fold change /veh GAP43 (11754022_s_at) / RFU A4GNT (11735810_at) / Fold change /veh A4GNT (11735810_at) / RFU PRB3 (11715151_x_at) / Fold change /veh PRB3 (11715151_x_at) / RFU TUBB4B (11761932_at) / Fold change /veh TUBB4B (11761932_at) / RFU CAPN14 (11732068_a_at) / Fold change /veh CAPN14 (11732068_a_at) / RFU TMCC2 (11721928_a_at) / Fold change /veh TMCC2 (11721928_a_at) / RFU IRGQ (11745062_a_at) / Fold change /veh IRGQ (11745062_a_at) / RFU FAM174B (11720279_a_at) / Fold change /veh FAM174B (11720279_a_at) / RFU TMPRSS4 (11748680_a_at) / Fold change /veh TMPRSS4 (11748680_a_at) / RFU FAM212B (11763350_a_at) / Fold change /veh FAM212B (11763350_a_at) / RFU PLEKHG5 (11743358_a_at) / Fold change /veh PLEKHG5 (11743358_a_at) / RFU ZSCAN30 (11745921_a_at) / Fold change /veh ZSCAN30 (11745921_a_at) / RFU CMKLR1 (11741424_a_at) / Fold change /veh CMKLR1 (11741424_a_at) / RFU LOC101060620 /// MAPK8IP1 (11723275_at) / Fold change /veh LOC101060620 /// MAPK8IP1 (11723275_at) / RFU SPTSSB (11747773_x_at) / Fold change /veh SPTSSB (11747773_x_at) / RFU PRSS12 (11739890_at) / Fold change /veh PRSS12 (11739890_at) / RFU BIN1 (11741810_x_at) / Fold change /veh BIN1 (11741810_x_at) / RFU WNT11 (11732464_a_at) / Fold change /veh WNT11 (11732464_a_at) / RFU C10orf10 (11716521_a_at) / Fold change /veh C10orf10 (11716521_a_at) / RFU C5orf56 (11738089_at) / Fold change /veh C5orf56 (11738089_at) / RFU CYB561 (11721691_x_at) / Fold change /veh CYB561 (11721691_x_at) / RFU ANKRD19P (11752326_a_at) / Fold change /veh ANKRD19P (11752326_a_at) / RFU OR2T12 /// OR2T33 /// OR2T8 (11738714_s_at) / Fold change /veh OR2T12 /// OR2T33 /// OR2T8 (11738714_s_at) / RFU VCAN (11748164_a_at) / Fold change /veh VCAN (11748164_a_at) / RFU JSRP1 (11732532_at) / Fold change /veh JSRP1 (11732532_at) / RFU KRTAP10-11 (11738290_x_at) / Fold change /veh KRTAP10-11 (11738290_x_at) / RFU MYO3A (11730013_a_at) / Fold change /veh MYO3A (11730013_a_at) / RFU EBF3 (11725865_a_at) / Fold change /veh EBF3 (11725865_a_at) / RFU CAMK2N1 (11719241_x_at) / Fold change /veh CAMK2N1 (11719241_x_at) / RFU C5orf56 (11738088_a_at) / Fold change /veh C5orf56 (11738088_a_at) / RFU OLFML3 (11715873_a_at) / Fold change /veh OLFML3 (11715873_a_at) / RFU LOC100653217 /// NTM (11731650_a_at) / Fold change /veh LOC100653217 /// NTM (11731650_a_at) / RFU MAPK11 (11762145_a_at) / Fold change /veh MAPK11 (11762145_a_at) / RFU FIZ1 (11724087_x_at) / Fold change /veh FIZ1 (11724087_x_at) / RFU OASL (11726364_x_at) / Fold change /veh OASL (11726364_x_at) / RFU SOX15 (11748057_x_at) / Fold change /veh SOX15 (11748057_x_at) / RFU CD79A (11719716_a_at) / Fold change /veh CD79A (11719716_a_at) / RFU HIST1H1D (11736915_at) / Fold change /veh HIST1H1D (11736915_at) / RFU CASKIN2 (11723855_a_at) / Fold change /veh CASKIN2 (11723855_a_at) / RFU LOC730098 (11760151_x_at) / Fold change /veh LOC730098 (11760151_x_at) / RFU OR4N2 (11742367_at) / Fold change /veh OR4N2 (11742367_at) / RFU PRRT2 (11749266_a_at) / Fold change /veh PRRT2 (11749266_a_at) / RFU SNX32 (11753110_a_at) / Fold change /veh SNX32 (11753110_a_at) / RFU CDHR5 (11726645_a_at) / Fold change /veh CDHR5 (11726645_a_at) / RFU RCAN1 (11760418_a_at) / Fold change /veh RCAN1 (11760418_a_at) / RFU FAM167A (11723789_a_at) / Fold change /veh FAM167A (11723789_a_at) / RFU FAM26E (11764081_at) / Fold change /veh FAM26E (11764081_at) / RFU ISYNA1 (11749810_s_at) / Fold change /veh ISYNA1 (11749810_s_at) / RFU ACY1 (11761880_at) / Fold change /veh ACY1 (11761880_at) / RFU 11764098_at / Fold change /veh 11764098_at / RFU SAMD14 (11745864_x_at) / Fold change /veh SAMD14 (11745864_x_at) / RFU NPB (11741838_a_at) / Fold change /veh NPB (11741838_a_at) / RFU TMPRSS6 (11731388_a_at) / Fold change /veh TMPRSS6 (11731388_a_at) / RFU KRTAP10-2 (11738614_at) / Fold change /veh KRTAP10-2 (11738614_at) / RFU ARHGAP8 /// PRR5-ARHGAP8 (11727945_x_at) / Fold change /veh ARHGAP8 /// PRR5-ARHGAP8 (11727945_x_at) / RFU KRTAP5-7 /// NADSYN1 (11734609_at) / Fold change /veh KRTAP5-7 /// NADSYN1 (11734609_at) / RFU RASL12 (11751679_a_at) / Fold change /veh RASL12 (11751679_a_at) / RFU CDKN2B (11736163_a_at) / Fold change /veh CDKN2B (11736163_a_at) / RFU PRF1 (11729649_at) / Fold change /veh PRF1 (11729649_at) / RFU, ZNF638 /// ZNF638-IT1 / Fold change vs veh, ZNF638 /// ZNF638-IT1 / RFU, PANK3 / Fold change vs veh, PANK3 / RFU, SH3YL1 / Fold change vs veh, SH3YL1 / RFU, ZEB2 / Fold change vs veh, ZEB2 / RFU, NRIP1 / Fold change vs veh, NRIP1 / RFU, PTTG1IP / Fold change vs veh, PTTG1IP / RFU, CAPN2 / Fold change vs veh, CAPN2 / RFU, MED14 / Fold change vs veh, MED14 / RFU, SNORA58 / Fold change vs veh, SNORA58 / RFU, C1orf63 / Fold change vs veh, C1orf63 / RFU, LRRFIP1 / Fold change vs veh, LRRFIP1 / RFU, NDUFAF7 / Fold change vs veh, NDUFAF7 / RFU, SLC12A2 / Fold change vs veh, SLC12A2 / RFU, IBTK / Fold change vs veh, IBTK / RFU, ESF1 / Fold change vs veh, ESF1 / Fold change vs veh, TMEM50B / RFU, TAOK1 / Fold change vs veh, TAOK1 / RFU, ACBD3 / Fold change vs veh, ACBD3 / RFU, TMA16 / Fold change vs veh, TMA16 / RFU, RWDD3 / Fold change vs veh, RWDD3 / RFU, BCAT1 / Fold change vs veh, BCAT1 / RFU, EDEM3 / Fold change vs veh, EDEM3 / RFU, TMEM33 / Fold change vs veh, TMEM33 / RFU, WDR75 / Fold change vs veh, WDR75 / RFU, AHCTF1 / Fold change vs veh, AHCTF1 / RFU, TFRC / Fold change vs veh, TFRC / RFU, ZDHHC17 / Fold change vs veh, ZDHHC17 / RFU, NOM1 / Fold change vs veh, NOM1 / RFU, ARL8B / Fold change vs veh, ARL8B / RFU, ZBTB11 / Fold change vs veh, ZBTB11 / RFU, TAMM41 / Fold change vs veh, TAMM41 / RFU, KIAA1704 /// LOC100996395 / Fold change vs veh, KIAA1704 /// LOC100996395 / RFU, ING1 / Fold change vs veh, ING1 / RFU, TRMT61B / Fold change vs veh, TRMT61B / RFU, FUBP3 / Fold change vs veh, FUBP3 / RFU, TP53 / Fold change vs veh, TP53 / RFU, TNKS2 / Fold change vs veh, TNKS2 / RFU, ZFP14 / Fold change vs veh, ZFP14 / RFU, ACTR2 / Fold change vs veh, ACTR2 / RFU, PPP3R1 / Fold change vs veh, PPP3R1 / RFU, PIK3R1 / Fold change vs veh, PIK3R1 / RFU, HNRNPA1 / Fold change vs veh, HNRNPA1 / RFU, RNF170 / Fold change vs veh, RNF170 / RFU, ZNF28 / Fold change vs veh, ZNF28 / RFU, RNGTT / Fold change vs veh, RNGTT / RFU, OGT / Fold change vs veh, OGT / RFU, BRD1 / Fold change vs veh, BRD1 / RFU, MARS / Fold change vs veh, MARS / RFU, ZNF655 / Fold change vs veh, ZNF655 / RFU, FAHD1 / Fold change vs veh, FAHD1 / RFU, BDP1 / Fold change vs veh, BDP1 / RFU, LRRCC1 / Fold change vs veh, LRRCC1 / RFU, ARID1A / Fold change vs veh, ARID1A / RFU, ZNF146 / Fold change vs veh, ZNF146 / RFU, ZNF330 / Fold change vs veh, ZNF330 / RFU, GPN3 / Fold change vs veh, GPN3 / RFU, C9orf123 / Fold change vs veh, C9orf123 / RFU, N4BP2L2 / Fold change vs veh, N4BP2L2 / RFU, ARFIP1 / Fold change vs veh, ARFIP1 / RFU, FAM179B / Fold change vs veh, FAM179B / RFU, BCL10 / Fold change vs veh, BCL10 / RFU, UHRF1BP1L / Fold change vs veh, UHRF1BP1L / RFU, BET1 / Fold change vs veh, BET1 / RFU, CNOT2 / Fold change vs veh, CNOT2 / RFU, ZNF268 / Fold change vs veh, ZNF268 / Fold change vs veh, ZNF507 / RFU, DGCR2 / Fold change vs veh, DGCR2 / RFU, WDSUB1 / Fold change vs veh, WDSUB1 / Fold change vs veh, HSP90B1 /// MIR3652 / RFU, ADSS / Fold change vs veh, ADSS / RFU, GK / Fold change vs veh, GK / RFU, ZNF148 / Fold change vs veh, ZNF148 / RFU, TAF9 / Fold change vs veh, TAF9 / RFU, SLC1A5 / Fold change vs veh, SLC1A5 / RFU, SLMO2 / Fold change vs veh, SLMO2 / RFU, ABCC4 / Fold change vs veh, ABCC4 / RFU, LOC101060439 /// RAP1B / Fold change vs veh, LOC101060439 /// RAP1B / RFU, RFX7 / Fold change vs veh, RFX7 / RFU, GTPBP10 / Fold change vs veh, GTPBP10 / RFU, CNEP1R1 / Fold change vs veh, CNEP1R1 / RFU, BIVM-ERCC5 /// ERCC5 / Fold change vs veh, BIVM-ERCC5 /// ERCC5 / RFU, ILF3 / Fold change vs veh, ILF3 / RFU 11762660_at / Fold change /veh 11762660_at / RFU VCAN (11757783_s_at) / Fold change /veh VCAN (11757783_s_at) / RFU DDX43 (11728927_at) / Fold change /veh DDX43 (11728927_at) / RFU KRT8 (11758188_x_at) / Fold change /veh KRT8 (11758188_x_at) / RFU NKD1 (11759106_at) / Fold change /veh NKD1 (11759106_at) / RFU SRD5A1 (11742802_a_at) / Fold change /veh SRD5A1 (11742802_a_at) / RFU TPSAB1 /// TPSB2 (11721975_s_at) / Fold change /veh TPSAB1 /// TPSB2 (11721975_s_at) / RFU GSTM3 (11746129_a_at) / Fold change /veh GSTM3 (11746129_a_at) / RFU IL23R (11737362_x_at) / Fold change /veh IL23R (11737362_x_at) / RFU TMEM51 (11727254_a_at) / Fold change /veh TMEM51 (11727254_a_at) / RFU PIWIL2 (11732686_x_at) / Fold change /veh PIWIL2 (11732686_x_at) / RFU ORM1 (11744905_x_at) / Fold change /veh ORM1 (11744905_x_at) / RFU CCDC152 (11743942_at) / Fold change /veh CCDC152 (11743942_at) / RFU ECM1 (11717891_a_at) / Fold change /veh ECM1 (11717891_a_at) / RFU IL23R (11748794_a_at) / Fold change /veh IL23R (11748794_a_at) / RFU TNFAIP8L3 (11732012_x_at) / Fold change /veh TNFAIP8L3 (11732012_x_at) / RFU MBOAT4 (11741988_at) / Fold change /veh MBOAT4 (11741988_at) / RFU 11764193_at / Fold change /veh 11764193_at / RFU TMEM53 (11763286_at) / Fold change /veh TMEM53 (11763286_at) / RFU MAGEB2 (11727129_at) / Fold change /veh MAGEB2 (11727129_at) / RFU TMEM200A (11744735_a_at) / Fold change /veh TMEM200A (11744735_a_at) / RFU CCDC152 (11751479_a_at) / Fold change /veh CCDC152 (11751479_a_at) / RFU FAM211A (11726209_a_at) / Fold change /veh FAM211A (11726209_a_at) / RFU RGS16 (11746705_a_at) / Fold change /veh RGS16 (11746705_a_at) / RFU VCAN (11755009_s_at) / Fold change /veh VCAN (11755009_s_at) / RFU RHOB (11743442_s_at) / Fold change /veh RHOB (11743442_s_at) / RFU RGS16 (11720943_a_at) / Fold change /veh RGS16 (11720943_a_at) / RFU RGS16 (11720944_at) / Fold change /veh RGS16 (11720944_at) / RFU, VPS4B / Fold change vs veh, VPS4B / RFU, CREB1 / Fold change vs veh, CREB1 / RFU, DNAJC13 / Fold change vs veh, DNAJC13 / RFU, GNAQ / Fold change vs veh, GNAQ / RFU, CDK5R1 / Fold change vs veh, CDK5R1 / RFU, ZRANB3 / Fold change vs veh, ZRANB3 / RFU, CUL4A / Fold change vs veh, CUL4A / RFU, CCNY / Fold change vs veh, CCNY / RFU, UFL1 / Fold change vs veh, UFL1 / RFU, COG3 / Fold change vs veh, COG3 / RFU, DIAPH2 / Fold change vs veh, DIAPH2 / RFU, SKA2 / Fold change vs veh, SKA2 / RFU, AFF3 / Fold change vs veh, AFF3 / RFU, LMF1 / Fold change vs veh, LMF1 / RFU, IPO11 / Fold change vs veh, IPO11 / RFU, DFFB / Fold change vs veh, DFFB / RFU, FOXP1 / Fold change vs veh, FOXP1 / RFU, CARD8 / Fold change vs veh, CARD8 / RFU, STRN3 / Fold change vs veh, STRN3 / RFU, ADK / Fold change vs veh, ADK / RFU, RASSF2 / Fold change vs veh, RASSF2 / RFU, WIPF1 / Fold change vs veh, WIPF1 / RFU, LARP1B / Fold change vs veh, LARP1B / RFU, RASA1 / Fold change vs veh, RASA1 / RFU, RB1 / Fold change vs veh, RB1 / RFU, PPFIA1 / Fold change vs veh, PPFIA1 / RFU, MAT2A / Fold change vs veh, MAT2A / RFU, CCT5 / Fold change vs veh, CCT5 / RFU, WDR92 / Fold change vs veh, WDR92 / RFU, CUX1 / Fold change vs veh, CUX1 / RFU, TTC7A / Fold change vs veh, TTC7A / RFU, TMEM135 / Fold change vs veh, TMEM135 / RFU, DEPTOR / Fold change vs veh, DEPTOR / RFU, CPM / Fold change vs veh, CPM / RFU, DNAJB6 / Fold change vs veh, DNAJB6 / RFU, CACNA2D3 / Fold change vs veh, CACNA2D3 / RFU, DTX4 / Fold change vs veh, DTX4 / RFU, TFCP2 / Fold change vs veh, TFCP2 / RFU, GMCL1 /// GMCL1P1 / Fold change vs veh, GMCL1 /// GMCL1P1 / RFU, AEBP2 / Fold change vs veh, AEBP2 / RFU, SNHG1 /// SNORD22 /// SNORD25 /// SNORD26 /// SNORD27 /// SNORD28 /// SNORD29 /// SNORD31 / Fold change vs veh, SNHG1 /// SNORD22 /// SNORD25 /// SNORD26 /// SNORD27 /// SNORD28 /// SNORD29 /// SNORD31 / Fold change (Aza/veh), C12orf56 (ProbeSet 11735607_a_at) / Fold change (ACY-1035/veh), C12orf56 (ProbeSet 11735607_a_at) / Fold change (Aza/veh), FGFR1OP (ProbeSet 11751329_s_at) / Fold change (ACY-1035/veh), FGFR1OP (ProbeSet 11751329_s_at) / Fold change (Aza/veh), VPS36 (ProbeSet 11739960_a_at) / Fold change (ACY-1035/veh), VPS36 (ProbeSet 11739960_a_at) / RFU SYPL1 (11715823_x_at) / Fold change /veh SYPL1 (11715823_x_at) / RFU IGFBP7 (11715501_s_at) / Fold change /veh IGFBP7 (11715501_s_at) / RFU REEP3 (11722064_at) / Fold change /veh REEP3 (11722064_at) / RFU IGLL1 (11728026_x_at) / Fold change /veh IGLL1 (11728026_x_at): dose or concentration left out as unconfirmed
# Details: ProbeSet 11747888_a_at; LIST D
compound,measurement,value
Nc1ccc(-c2cccs2)cc1NC(=O)c1ccc2c(c1)cc(C1CC1)n2CCN1CCOCC1 [ACY-1035],"RFU, SH3YL1",63.67 RFU
